Our source for the EC50 values is patent US8877707B2, “Inhibitors of HCV NS5A” (Presidio Pharmaceuticals, Inc., priority 2010, dated 2014).

For this assay, the system named is HCV genotype 1b replicon in Huh 7 cells. The assay can be described thus: HCV replicon assay (1b_Huh-Luc/Neo-ET cell line, luciferase readout). In kind it is cell-based. The conditions noted are these: Hepatitis C virus; Table 1; genotype 1b replicon, Huh 7 cells, 72 h, luciferase; read-out: Inhibition of HCV genotype 1b. In a few lines:
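Huh 7 cells carrying a bicistronic genotype 1b luciferase replicon were treated with compound in triplicate the day after plating and incubated 72 h. Luciferase activity expressed as % of untreated control; EC50 from a four-parameter logistic fit, repeated several times.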
In general terms: In antiviral work, replicon cells carry a viral genome segment that copies itself.

Consider `COC(=O)N[C@H](C(=O)N1CCC[C@H]1c1nc(-c2cnc3cc(-c4ccc(-c5cnc([C@@H]6CCCN6C(=O)[C@@H](NC(=O)OC)C6CCOCC6)[nH]5)cn4)ccc3c2)c[nH]1)C1CCOCC1` [compound 75], for which the EC50 is less than 1 nM. For `COC(=O)N[C@H](C(=O)N1CCC[C@H]1c1nc(-c2ccc3[nH]c(-c4ccc(-c5cnc([C@@H]6CCCN6C(=O)[C@@H](NC(=O)OC)C(C)C)[nH]5)cc4)cc(=O)c3c2)c[nH]1)C(C)C` [compound 76] the value was less than 1 nM; for `COC(=O)N[C@@H](C(=O)N1CCC[C@H]1c1nc(-c2ccc3[nH]c(-c4ccc(-c5cnc([C@@H]6CCCN6C(=O)[C@H](NC(=O)OC)c6ccccc6)[nH]5)cc4)cc(=O)c3c2)c[nH]1)c1ccccc1` [compound 77], 10 to 999 nM. With `COC(=O)N[C@@H](C(=O)N1CCC[C@H]1c1nc(-c2ccc3nc(-c4ccc(-c5cnc([C@@H]6CCCN6C(=O)[C@H](NC(=O)OC)c6ccccc6)[nH]5)cc4)cc(OC)c3c2)c[nH]1)c1ccccc1` [compound 78] the figure was less than 1 nM. Consider `COC(=O)N[C@H](C(=O)N1CCC[C@H]1c1nc(-c2ccc3nc(-c4ccc(-c5cnc([C@@H]6CCCN6C(=O)[C@@H](NC(=O)OC)C(C)C)[nH]5)cc4)cc(OC)c3c2)c[nH]1)C(C)C` [compound 79], for which the EC50 was less than 1 nM. For `COC(=O)N[C@@H](C(=O)N1CCC[C@H]1c1nc(-c2cnc3cc(-c4ccc(-c5cnc([C@@H]6CCCN6C(=O)[C@H](NC(=O)OC)c6ccccc6)[nH]5)cn4)ccc3c2)c[nH]1)c1ccccc1` [compound 80] the value was less than 1 nM; for `COC(=O)N[C@H](C(=O)N1CCC[C@H]1c1ncc(-c2ccc(-c3ccc4cc(-c5c[nH]c([C@@H]6CCCN6C(=O)[C@H](NC(=O)OC6CCOCC6)c6ccccc6)n5)cnc4c3)nc2)[nH]1)C(C)C` [compound 81], less than 1 nM. For `COC(=O)N[C@H](C(=O)N1CCC[C@H]1c1ncc(-c2ccc(-c3ccc4cc(-c5c[nH]c([C@@H]6CCCN6C(=O)[C@H](NC(=O)OC(C)(C)C)c6ccccc6)n5)cnc4c3)nc2)[nH]1)C(C)C` [compound 82] the value was less than 1 nM. With `COC(=O)N[C@H](C(=O)N1CCC[C@H]1c1nc(-c2ccc3cc(-c4ccc(-c5cnc([C@@H]6CCCN6C(=O)[C@@H](NC(=O)OC)C(C)C)[nH]5)nc4)ccc3c2)c[nH]1)C(C)C` [compound 83] the figure was less than 1 nM; with `COC(=O)N[C@H](C(=O)N1CCC[C@H]1c1nc(-c2ccc3cc(-c4ccc(-c5cnc([C@@H]6CCCN6C(=O)[C@@H](NC(=O)OC)C6CCOCC6)[nH]5)nc4)ccc3c2)c[nH]1)C(C)C` [compound 84], less than 1 nM; with `COC(=O)N[C@H](C(=O)N1CCC[C@H]1c1nc(-c2ccc3cc(-c4ccc(-c5cnc([C@@H]6CCCN6C(=O)[C@@H](NC(=O)OC)C(C)C)[nH]5)cc4C)ccc3c2)c[nH]1)C(C)C` [compound 85], less than 1 nM. `COC(=O)N[C@H](C(=O)N1CCC[C@H]1c1nc(-c2ccc3cc(-c4ccc(-c5cnc([C@@H]6CCCN6C(=O)[C@@H](NC(=O)OC)C6CCOCC6)[nH]5)cc4C)ccc3c2)c[nH]1)C(C)C` [compound 86]: the EC50 is less than 1 nM.

On to `COC(=O)N[C@H](C(=O)N1CCC[C@H]1c1ncc(-c2ccc(-c3ccc4cc(-c5c[nH]c([C@@H]6CCCN6C(=O)[C@H](NC(=O)OC)c6ccccc6)n5)ccc4c3)c(C)c2)[nH]1)C(C)C` [compound 87], for which the EC50 was less than 1 nM. Consider `COC(=O)N[C@H](C(=O)N1CCC[C@H]1c1nc(-c2cnc3cc(-c4ccc(-c5cnc([C@@H]6CCCN6C(=O)[C@H](NC(=O)OC6CCOCC6)c6ccccc6)[nH]5)cc4)ccc3c2)c[nH]1)C(C)C` [compound 88], for which the EC50 was less than 1 nM.

As for `COC(=O)N[C@H](C(=O)N1CCC[C@H]1c1nc(-c2cnc3cc(-c4ccc(-c5cnc([C@@H]6CCCN6C(=O)[C@H](NC(=O)OC6CCOCC6)c6ccccc6)[nH]5)cc4)ccc3c2)c[nH]1)C1CCOCC1` [compound 89], the EC50 was less than 1 nM. With `COC(=O)N[C@H](C(=O)N1CCC[C@H]1c1ncc(-c2ccc(-c3ccc4cc(-c5c[nH]c([C@@H]6CCCN6C(=O)[C@H](NC(=O)OC)c6ccccc6)n5)ccc4n3)cc2)[nH]1)C1CCOCC1` [compound 90] the figure was less than 1 nM; with `COC(=O)N[C@H](C(=O)N1CCC[C@H]1c1ncc(-c2ccc(-c3ccc4cc(-c5c[nH]c([C@@H]6CCCN6C(=O)[C@H](NC(=O)OC(C)(C)C)c6ccccc6)n5)ccc4n3)cc2)[nH]1)C1CCOCC1` [compound 91], less than 1 nM. For `COC(=O)N[C@H](C(=O)N1CCC[C@H]1c1ncc(-c2ccc(-c3ccc4cc(-c5c[nH]c([C@@H]6CCCN6C(=O)[C@H](NC(=O)OC6CCOCC6)c6ccccc6)n5)ccc4n3)cc2)[nH]1)C1CCOCC1` [compound 92], the EC50 was less than 1 nM. As for `COC(=O)N[C@H](C(=O)N1CCC[C@H]1c1nc(-c2cnc3cc(-c4ccc(-c5cnc([C@@H]6CCCN6C(=O)[C@@H](NC(=O)OC)C(C)C)[nH]5)nc4)ccc3c2)c[nH]1)C(C)C` [compound 93], the EC50 is less than 1 nM. With `COC(=O)N[C@H](C(=O)N1CCC[C@H]1c1ncc(-c2ccc(-c3ccc4cc(-c5c[nH]c([C@@H]6CCCN6C(=O)[C@H](NC(=O)OC)c6ccccc6)n5)cnc4c3)cn2)[nH]1)C(C)C` [compound 94] the figure was less than 1 nM; with `COC(=O)N[C@H](C(=O)N1CCC[C@H]1c1ncc(-c2ccc(-c3ccc4cc(-c5c[nH]c([C@@H]6CCCN6C(=O)[C@@H](NC(=O)OC)C6CCOCC6)n5)cnc4c3)cn2)[nH]1)C(C)C` [compound 95], less than 1 nM; with `COC(=O)N[C@H](C(=O)N1CCC[C@H]1c1nc(-c2ccc3nc(-c4ccc(-c5cnc([C@@H]6CCCN6C(=O)[C@@H](NC(=O)OC)C(C)C)[nH]5)cc4F)ccc3c2)c[nH]1)C(C)C` [compound 96], less than 1 nM. With `COC(=O)N[C@@H](C(=O)N1CCC[C@H]1c1nc(-c2ccc3nc(-c4ccc(-c5cnc([C@@H]6CCCN6C(=O)[C@H](NC(=O)OC)c6ccccc6)[nH]5)cc4F)ccc3c2)c[nH]1)c1ccccc1` [compound 97] the figure was less than 1 nM. For `COC(=O)N[C@H](C(=O)N1CCC[C@H]1c1nc(-c2ccc3nc(-c4ccc(-c5cnc([C@@H]6CCCN6C(=O)[C@@H](NC(=O)OC)C6CCOCC6)[nH]5)cc4F)ccc3c2)c[nH]1)C1CCOCC1` [compound 98], the EC50 is less than 1 nM. With `COC(=O)N[C@H](C(=O)N1CCC[C@H]1c1nc(-c2ccc3cc(-c4ccc(-c5cnc([C@@H]6CCCN6C(=O)[C@H](NC(=O)OC)c6ccccc6)[nH]5)cc4)ccc3c2)c[nH]1)C1CCOCC1` [compound 99] the figure was less than 1 nM. With `COC(=O)N[C@H](C(=O)N1CCC[C@H]1c1nc(-c2ccc3cc(-c4ccc(-c5cnc([C@@H]6CCCN6C(=O)[C@H](NC(=O)OC)c6ccccc6)[nH]5)cc4)ncc3c2)c[nH]1)C1CCOCC1` [compound 100] the figure was less than 1 nM. Turning to `COC(=O)N[C@H](C(=O)N1CCC[C@H]1c1ncc(-c2ccc(-c3cc4ccc(-c5c[nH]c([C@@H]6CCCN6C(=O)[C@H](NC(=O)OC)c6ccccc6)n5)cc4cn3)cc2)[nH]1)C1CCOCC1` [compound 101], the EC50 was less than 1 nM.

As to `COC(=O)N[C@H](C(=O)N1CCC[C@H]1c1nc(-c2ccc3cc(-c4ccc(-c5cnc([C@@H]6CCCN6C(=O)[C@@H](NC(=O)OC)C(C)C)[nH]5)cc4)ccc3n2)c[nH]1)C(C)C` [compound 102], the EC50 is less than 1 nM.
